The numbers were not newly measured in patent US20230000835A1, “LYSINE-SPECIFIC HISTONE DEMETHYLASE INHIBITORS FOR THE TREATMENT OF MYELOPROLIFERATIVE NEOPLASMS” (Imago Biosciences, Inc., priority 2019, published 2023), which cites them from elsewhere.

In the data set the test system is primary myelofibrosis patients. As to conditions: 50 to 100 mg/day in combination with prednisone; cited from earlier work.

On to `O=C1CCC(N2C(=O)c3ccccc3C2=O)C(=O)N1` (centres unmarked) [Thalidomide], for which the “primary myelofibrosis patients with improved anemia and thrombocytopenia” value is on record as “approximately 60%”; the “primary myelofibrosis patients with reduced spleen size” value was “approximately 20%”.
